{"source": "patent US20040202693A1", "about": "“Pharmaceutical compositions releasing their active agents from a buccal or sublingual location to overcome an absorption window problem” (priority 2003, published 2004)", "origin": "cited, not measured here", "key": {"[1]": {"conditions": "oral administration in conventional dosage forms, upper portion of the gastrointestinal tract"}}, "note": "Read-outs that look alike come from different tables or passages of the source."}
{"compound": "O=C(O[C@H]1C[C@H]2CC[C@@H](C1)[N+]21CCCC1)C(O)(c1ccccc1)c1ccccc1", "note": "[Trospium chloride]", "values": [{"measurement": "bioavailability", "setting": "after oral administration", "result": "approximately 10%"}, {"measurement": "absorption", "setting": "after rectal administration", "result": "almost no absorption at all"}, {"measurement": "bioavailability", "setting": "enteric-coated formulation", "result": "significant decrease of bioavailability"}]}
{"compound": "C[C@H]1c2cccc(O)c2C(=O)C2=C(O)[C@]3(O)C(=O)C(C(N)=O)=C(O)[C@@H](N(C)C)[C@@H]3[C@@H](O)[C@@H]21", "note": "[Doxycycline]", "values": [{"measurement": "absorption", "setting": "[1]", "result": "rapidly and almost completely absorbed"}]}
